Measurements: patent publication US8106236B2, “Triaryl compounds and derivates thereof” (Ortho-McNeil Pharmaceutical, Inc., priority 2006, dated 2012)
Each block holds one compound with its values, some of them ahead of it.

Legend:
Aβ42 [1] = assay: In vivo Aβ42 lowering, mouse; conditions: oral dose 30 mpk at 4 hr time point, read-out: Mouse Efficacy % Lowering Aβ 42
Description: (§1) To determine whether acute administration of an Aβ42 lowering agent would reduce Aβ42 levels in vivo, non-transgenic rodents, e.g. mice or rats can be used. Alternatively, two to three month old Tg2576 mice expressing APP695 containing the “Swedish” variant can be used or a transgenic mouse model developed by Dr. Fred Van Leuven (K.U.Leuven, Belgium) and co-workers, with neuron-specific expression of a clinical mutant of the human amyloid precursor protein [V717I] (Moechars et al., 1999 J. Biol. Chem. 274, 6483). […] Animals of this age have high levels of Aβ in the brain but no detectable Aβ deposition. Mice treated with the Aβ42 lowering agent will be examined and compared to those untreated or treated with vehicle and brain levels of soluble Aβ42 and total Aβ would be quantitated by standard techniques, for example, using ELISA. Treatment periods may vary from hours to days and will be adjusted based on the results of the Aβ42 lowering once a time course of onset of effect can be established.
(§2) A typical protocol for measuring Aβ42 lowering in vivo is shown but it is only one of many variations that could be used to optimize the levels of detectable Aβ. For example, aliquots of compounds can be dissolved in DMSO (volume equal to 1/10th of the final formulation volume), vortexed and further diluted (1:10) with a 10% (w/v) hydroxypropyl β cyclodextrin (HBC, Aldrich, Ref N° 33,260-7) solution in PBS, where after they are sonicated for 20 seconds.
(§3) Aβ42 lowering agents may be administered as a single oral dose given three to four hours before sacrifice and analysis or alternatively could be given over a course of days and the animals sacrificed three to four hours after the final dose is given.
(§4) Blood is collected at sacrifice. The blood collection is performed via a heart puncture during anesthesia with a mixture of Ketalar (Ketamin), Rompun (Xylazin 2%) and Atropin (2:1:1) and collected in EDTA treated collection tubes. Blood is centrifuged at 4000 g for 5 minutes at 4° C. and the plasma recovered for analysis.
(§5) The mice are anaesthetized with a mixture of Ketalar (Ketamin), Rompun (Xylazin 2%) and Atropin (2:1:1) and flushed trans-cardially with physiological serum at 4° C.
(§6) The brain is removed from the cranium and hindbrain and forebrain are separated with a cut in the coronal/frontal plane. The cerebellum is removed. The forebrain is divided evenly into left and right hemisphere by using a midline sagital cut.
(§7) One hemisphere is immediately immersed in liquid nitrogen and stored at −70° C. until homogenization for biochemical assays.
(§8) Brains are homogenized using a Potter, a glass tube (detergent free, 2 cm^3) and a mechanical homogenizer (650 rpm). A volume of 6.5×½ brain weight of freshly prepared 20 mM Tris/HCl buffer (pH 8.5) with Proteinase Inhibitors (1 tablet per 50 ml Tris/HCl buffer, Complete™, Roche, Mannheim, Germany) is used as homogenization buffer.
(§9) Samples are transferred from −70° C. into a sample holder with liquid nitrogen and each individual sample is pre-warmed by incubation on the bench for a few seconds prior to homogenization. The homogenates are collected in Beckman centrifuge tubes TLX and collected on ice prior to centrifugation. Between two samples, the Potter and the glass tube are rinsed carefully with distilled water without detergents and dried with absorption paper.
(§10) Samples are centrifuged in a pre-cooled ultracentrifuge (Beckman, Mannheim, Germany) for 1 hour and 20 minutes at 48000 rpm (135.000×g) at 4° C. The supernatant (soluble fraction containing secreted APP and amyloid peptides) is separated from the pellet (membrane fraction containing membrane-bound APP-fragments and plaque-associated amyloid peptides in case of aged mice).
(§11) Small reversed phase columns (C18-Sep-Pack Vac 3 cc cartridges, Waters, Mass., MA) are mounted on a vacuum system and washed with 80% acetonitrile in 0.1% Trifluoroacetic acid (A-TFA) followed with 0.1% TFA twice. […]

Aβ42 [2] = assay: In vivo Aβ42 lowering, rat; conditions: oral dose 30 mpk at 4 hr time point
Description: as §1, §2, §3, §4, §5, §6, §7, §8, §9, §10, §11

γ-secretase = γ-secretase (Homo sapiens, UniProt P49768); assay: Screening for γ-secretase-modulating activity, Aβ42 in SKNBE2 cells carrying APP 695 wild type; type: cell-based; conditions: read-out: WTAPP SKNBE2 Aβ 42% Inhibition at 3 μM
Procedure: Screening of the Compounds of the Invention for γ-Secretase-Modulating Activity
Cells were grown to near confluency.

Compound: CC(C)CC(C(=O)O)c1cc(-c2ccc(C(C)C)cc2)cc(-c2ccc(C(F)(F)F)cc2)c1 (stereo not shown) [Compound 4, 2-(4-Isopropyl-4″-trifluoromethyl-[1,1′;3′,1″]terphenyl-5′-yl)-4-methyl-pentanoic acid]
- inhibition in vivo at 30 mg/kg (Aβ42 [1]): 30%

Compound: CC(C)CC(C(=O)O)c1cc(-c2ccc(C(F)(F)F)cc2)cc(-c2ccc(C(F)(F)F)cc2)c1 (stereo not shown) [Compound 5, 2-(4,4″-Bis-trifluoromethyl-[1,1′;3′,1″]terphenyl-5′-yl)-4-methyl-pentanoic acid]
- inhibition in vivo at 30 mg/kg (Aβ42 [1]): 48%
- Rat Efficacy % Lowering Aβ 42 (Aβ42 [2]): 29%

Compound: CC(C)CC(C(=O)O)c1cc(-c2ccc(C(F)(F)F)cc2)cc(-c2cc(F)c(F)c(F)c2)c1 (stereo not shown) [Compound 14, 4-Methyl-2-(3,4,5-trifluoro-4″-trifluoromethyl-[1,1′;3′,1″]terphenyl-5′-yl)-pentanoic acid]
- inhibition in vivo at 30 mg/kg (Aβ42 [1]): 58%
- Rat Efficacy % Lowering Aβ 42 (Aβ42 [2]): 20%

Compound: CC(C)CC(C(=O)O)c1cc(-c2ccc(C#N)cc2)cc(-c2ccc(C(F)(F)F)cc2)c1 (stereo not shown) [Compound 16, 2-(4-Cyano-4″-trifluoromethyl-[1,1′;3′,1″]terphenyl-5′-yl)-4-methyl-pentanoic acid]
- inhibition in vivo at 30 mg/kg (Aβ42 [1]): 10%

Compound: CC(C)CC(C(=O)O)c1cc(-c2ccc(OC(F)(F)F)cc2)cc(-c2ccc(C(F)(F)F)cc2)c1 (stereo not shown) [Compound 20, 4-Methyl-2-(4-trifluoromethoxy-4″-trifluoromethyl-[1,1′;3′,1″]terphenyl-5′-yl)-pentanoic acid]
- inhibition in vivo at 30 mg/kg (Aβ42 [1]): 50%
- Rat Efficacy % Lowering Aβ 42 (Aβ42 [2]): 20%

Compound: CC(C)C[C@H](C(=O)O)c1cc(-c2ccc(C(F)(F)F)cc2)cc(-c2cc(F)cc(F)c2)c1 [Compound 41, (S)-2-(3,5-Difluoro-4″-trifluoromethyl-[1,1′;3′,1″]terphenyl-5′-yl)-4-methyl-pentanoic acid]
- inhibition in vivo at 30 mg/kg (Aβ42 [1]): 58%

Compound: CC(C)C[C@@H](C(=O)O)c1cc(-c2ccc(C(F)(F)F)cc2)cc(-c2cc(F)cc(F)c2)c1 [Compound 42, (R)-2-(3,5-Difluoro-4″-trifluoromethyl-[1,1′;3′,1″]terphenyl-5′-yl)-4-methyl-pentanoic acid]
- inhibition in vivo at 30 mg/kg (Aβ42 [1]): 48%

Compound: CC(C)C[C@H](C(=O)O)c1cc(-c2ccc(C(F)(F)F)cc2)cc(-c2cc(C(F)(F)F)cc(C(F)(F)F)c2)c1 [Compound 43, (S)-4-Methyl-2-(3,5,4″-tris-trifluoromethyl-[1,1′;3′,1″]terphenyl-5′-yl)-pentanoic acid]
- inhibition in vivo at 30 mg/kg (Aβ42 [1]): 40%

Compound: CC(C)C[C@@H](C(=O)O)c1cc(-c2ccc(C(F)(F)F)cc2)cc(-c2ccc(Cl)c(F)c2)c1 [Compound 47, (R)-2-(4-Chloro-3-fluoro-4″-trifluoromethyl-[1,1′;3′,1″]terphenyl-5′-yl)-4-methyl-pentanoic acid]
- inhibition in vivo at 30 mg/kg (Aβ42 [1]): 45%

- inhibition at 3 µM (γ-secretase): 18%
Compound: CC(=O)c1ccc(-c2cc(-c3ccc(C(F)(F)F)cc3)cc(C(CC(C)C)C(=O)O)c2)cc1 (stereo not shown) [Compound 48, 2-(4-Acetyl-4″-trifluoromethyl-[1,1′;3′,1″]terphenyl-5′-yl)-4-methyl-pentanoic acid]

- inhibition at 3 µM (γ-secretase): -17%
Compound: CC(C)CC(C(=O)O)c1cc(-c2ccc(C(F)(F)F)cc2)cc(-c2cccc(N(C)C)c2)c1 (stereo not shown) [Compound 49, 2-(3-Dimethylamino-4″-trifluoromethyl-[1,1′;3′,1″]terphenyl-5′-yl)-4-methyl-pentanoic acid]

Compound: CC(C)C[C@@H](C(=O)O)c1cc(-c2ccc(OC(F)(F)F)cc2)cc(-c2ccc(C(F)(F)F)cc2)c1 [Compound 51, (R)-4-Methyl-2-(4-trifluoromethoxy-4″-trifluoromethyl-[1,1′;3′,1″]terphenyl-5′-yl)-pentanoic acid]
- inhibition in vivo at 30 mg/kg (Aβ42 [1]): 50%

Compound: CC(C)C[C@H](C(=O)O)c1cc(-c2ccc(OC(F)(F)F)cc2)cc(-c2ccc(C(F)(F)F)cc2)c1 [Compound 52, (S)-4-Methyl-2-(4-trifluoromethoxy-4″-trifluoromethyl-[1,1′;3′,1″]terphenyl-5′-yl)-pentanoic acid]
- inhibition in vivo at 30 mg/kg (Aβ42 [1]): 48%
